# Laboratory results from BindingDB's records for patent US20190276450 (Abbvie, 2019).
# Target: Tyrosine-protein kinase JAK2 (Homo sapiens, UniProt O60674)
# Test: JAK2 (PSTAT5 UT7) Alpha Screen Assay
# Description: (§1) Erythropoietin (EPO) is known to transduce its signal through EPO receptor via Jak2. Activity against Jak2 was therefore measured by determining inhibition of EPO induced phosphorylation of STATS in UT7 cells. From these tests, the EC50 (effective concentration for 50% maximal response) values were determined in 1 μM for the test compounds.
# Chain of Tyrosine-protein kinase JAK2 (O60674 whole entry): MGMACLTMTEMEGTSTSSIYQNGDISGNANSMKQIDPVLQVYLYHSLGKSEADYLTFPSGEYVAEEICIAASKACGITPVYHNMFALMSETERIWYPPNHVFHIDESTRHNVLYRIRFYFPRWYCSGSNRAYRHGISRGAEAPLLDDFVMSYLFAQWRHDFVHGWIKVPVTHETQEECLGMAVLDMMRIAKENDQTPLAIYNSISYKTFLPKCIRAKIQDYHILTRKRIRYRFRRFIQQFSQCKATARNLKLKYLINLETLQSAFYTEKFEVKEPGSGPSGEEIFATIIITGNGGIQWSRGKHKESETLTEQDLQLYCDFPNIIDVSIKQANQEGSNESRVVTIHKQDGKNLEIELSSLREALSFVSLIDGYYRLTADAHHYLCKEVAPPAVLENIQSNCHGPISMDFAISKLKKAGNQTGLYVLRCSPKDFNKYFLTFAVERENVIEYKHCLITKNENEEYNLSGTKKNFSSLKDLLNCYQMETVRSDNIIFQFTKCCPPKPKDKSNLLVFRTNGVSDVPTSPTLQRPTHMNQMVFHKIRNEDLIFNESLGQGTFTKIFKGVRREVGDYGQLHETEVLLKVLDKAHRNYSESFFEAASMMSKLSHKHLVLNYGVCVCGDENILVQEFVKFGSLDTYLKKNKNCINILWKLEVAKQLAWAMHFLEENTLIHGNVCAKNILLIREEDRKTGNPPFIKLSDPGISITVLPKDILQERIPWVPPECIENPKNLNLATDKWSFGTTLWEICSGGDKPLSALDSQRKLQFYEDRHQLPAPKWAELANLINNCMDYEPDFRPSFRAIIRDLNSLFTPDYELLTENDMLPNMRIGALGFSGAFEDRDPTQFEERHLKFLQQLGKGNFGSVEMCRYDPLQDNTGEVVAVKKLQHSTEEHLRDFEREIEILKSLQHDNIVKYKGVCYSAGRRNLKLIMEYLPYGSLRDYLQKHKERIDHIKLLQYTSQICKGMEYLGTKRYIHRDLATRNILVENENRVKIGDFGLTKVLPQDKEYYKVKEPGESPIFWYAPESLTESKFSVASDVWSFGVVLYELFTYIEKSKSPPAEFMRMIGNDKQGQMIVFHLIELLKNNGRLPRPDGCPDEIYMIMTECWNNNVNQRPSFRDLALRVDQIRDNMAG
row,EC50,SMILES
1,> 25 µM,"CO[C@@]1(c2cc(O[C@@H](C)CCO)cc(-c3cn(C)c4cnc(NC(C)=O)cc34)n2)CCOC1 [US20190276450, Example 14.4]"
2,> 25 µM,"CO[C@@]1(c2cc(C)cc(-c3cn(C)c4cnc(NC(N)=O)cc34)n2)CCOC1 [US20190276450, Example 1b.2]"
3,> 25 µM,"COC1(c2cccc(-c3cn(C)c4cnc(NC(N)=O)cc34)n2)COC1 [US20190276450, Example 1b.4]"
4,> 25 µM,"CO[C@@]1(c2cc(C(F)F)cc(-c3cn([C@H]4C[C@H](C#N)C4)c4cnc(NC(C)=O)cc34)n2)CCOC1 [US20190276450, Example 17.2]"
5,> 25 µM,"COCc1cc(-c2cn(C)c3cnc(NC(C)=O)cc23)nc([C@]2(OC)CCOC2)c1 [US20190276450, Example 2]"
6,> 25 µM,"CO[C@H](C)COc1cc(-c2cn(C)c3cnc(NC(C)=O)cc23)nc([C@]2(OC)CCOC2)c1 [US20190276450, Example 22.10]"
7,> 25 µM,"CO[C@@]1(c2cc(OCC[C@H](C)O)cc(-c3cn(C)c4cnc(NC(C)=O)cc34)n2)CCOC1 [US20190276450, Example 9]"
8,> 25 µM,"CO[C@@]1(c2cccc(-c3cn(C)c4cnc(NC(N)=O)cc34)n2)CCOC1 [US20190276450, Example 1]"
9,> 25 µM,"COCCOc1cc(-c2cn(C)c3cnc(NC(C)=O)cc23)nc([C@]2(CO)CCOC2)c1 [US20190276450, Example 22.8]"
10,> 25 µM,"CO[C@@]1(c2cc(OC[C@@H](C)O)cc(-c3cn(C)c4cnc(NC(C)=O)cc34)n2)CCOC1 [US20190276450, Example 14.6]"
11,> 25 µM,"CO[C@@]1(c2cc(OCC[C@@H](C)O)cc(-c3cn(C)c4cnc(NC(C)=O)cc34)n2)CCOC1 [US20190276450, Example 7]"
12,> 25 µM,"CO[C@@]1(c2cc(OC(F)F)cc(-c3cn(C)c4cnc(NC(C)=O)cc34)n2)CCOC1 [US20190276450, Example 22.2]"

# Target: Tyrosine-protein kinase JAK1 (Homo sapiens, UniProt P23458)
# Test: JAK1 (PSTAT3 TF1) Alpha Screen Assay
# Description: as §1, with “IL-6” for “Erythropoietin (EPO)”, “IL-6” for “EPO”, “Jak1.” for “Jak2.”, “Jak” for “Jak2”, “STAT3” for “STATS”, “TF1” for “UT7”
# Chain of Tyrosine-protein kinase JAK1 (P23458 whole entry): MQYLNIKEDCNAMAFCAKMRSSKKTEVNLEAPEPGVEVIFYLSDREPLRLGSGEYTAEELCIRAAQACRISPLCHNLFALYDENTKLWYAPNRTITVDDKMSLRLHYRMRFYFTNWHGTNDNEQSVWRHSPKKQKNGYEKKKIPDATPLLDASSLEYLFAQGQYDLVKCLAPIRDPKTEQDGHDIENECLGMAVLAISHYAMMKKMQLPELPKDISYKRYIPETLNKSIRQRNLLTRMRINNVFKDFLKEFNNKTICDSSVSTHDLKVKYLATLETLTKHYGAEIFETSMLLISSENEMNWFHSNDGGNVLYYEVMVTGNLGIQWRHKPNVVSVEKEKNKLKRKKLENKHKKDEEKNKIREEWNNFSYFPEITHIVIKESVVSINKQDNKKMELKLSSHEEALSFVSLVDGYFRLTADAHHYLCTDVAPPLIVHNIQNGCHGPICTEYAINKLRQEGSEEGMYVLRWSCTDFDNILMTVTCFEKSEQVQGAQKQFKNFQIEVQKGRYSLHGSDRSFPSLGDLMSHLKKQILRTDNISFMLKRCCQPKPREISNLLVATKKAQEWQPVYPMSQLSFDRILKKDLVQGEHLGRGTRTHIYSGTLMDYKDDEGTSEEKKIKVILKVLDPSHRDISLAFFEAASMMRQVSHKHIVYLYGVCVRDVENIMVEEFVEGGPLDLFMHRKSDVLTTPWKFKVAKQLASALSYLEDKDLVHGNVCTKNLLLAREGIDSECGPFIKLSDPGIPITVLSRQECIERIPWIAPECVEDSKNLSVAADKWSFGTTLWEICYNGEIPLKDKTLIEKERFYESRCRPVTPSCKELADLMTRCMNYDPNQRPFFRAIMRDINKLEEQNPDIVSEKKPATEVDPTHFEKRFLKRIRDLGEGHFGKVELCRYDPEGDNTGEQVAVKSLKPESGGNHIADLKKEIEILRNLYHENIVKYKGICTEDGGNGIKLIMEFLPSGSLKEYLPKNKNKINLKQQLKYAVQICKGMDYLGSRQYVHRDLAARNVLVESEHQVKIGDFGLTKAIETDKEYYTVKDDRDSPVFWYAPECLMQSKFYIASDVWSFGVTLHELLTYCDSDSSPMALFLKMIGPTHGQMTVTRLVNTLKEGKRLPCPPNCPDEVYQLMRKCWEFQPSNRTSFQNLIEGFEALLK
row,EC50,SMILES
1,40 µM,"CO[C@@]1(c2cc(C(F)F)cc(-c3cn([C@@H]4CCOC4)c4cnc(NC(N)=O)cc34)n2)CCOC1 [US20190276450, Example 12b.2]"
2,73 µM,"NC(=O)Nc1cc2c(-c3cccc(C4(O)COC4)n3)cn([C@@H]3CCOC3)c2cn1 [US20190276450, Example 15]"
3,40 µM,"CO[C@@]1(c2cc(C(F)F)cc(-c3cn(C4COC4)c4cnc(NC(N)=O)cc34)n2)CCOC1 [US20190276450, Example 12b.4]"
4,> 100 µM,"COc1cc(-c2cn(C3COC3)c3cnc(NC(C)=O)cc23)nc([C@]2(OC)CCOC2)c1 [US20190276450, Example 5]"
5,63 µM,"CO[C@@]1(c2cc(O[C@@H](C)CCO)cc(-c3cn(C)c4cnc(NC(C)=O)cc34)n2)CCOC1 [US20190276450, Example 14.4]"
6,22 µM,"CO[C@@]1(c2cc(OC3COC3)cc(-c3cn(C)c4cnc(NC(C)=O)cc34)n2)CCOC1 [US20190276450, Example 8]"
7,21 µM,"CO[C@@]1(c2cc(C)cc(-c3cn(C)c4cnc(NC(N)=O)cc34)n2)CCOC1 [US20190276450, Example 1b.2]"
8,7.6 µM,"COC1(c2cccc(-c3cn(C)c4cnc(NC(N)=O)cc34)n2)COC1 [US20190276450, Example 1b.4]"
9,35 µM,"CO[C@@]1(c2cc(C(F)F)cc(-c3cn([C@H]4C[C@H](C#N)C4)c4cnc(NC(C)=O)cc34)n2)CCOC1 [US20190276450, Example 17.2]"
10,> 100 µM,"COc1cc(-c2cn([C@@H]3CCOC3)c3cnc(NC(C)=O)cc23)nc([C@]2(OC)CCOC2)c1 [US20190276450, Example 5.2]"
11,> 40 µM,"COCc1cc(-c2cn(C)c3cnc(NC(C)=O)cc23)nc([C@]2(OC)CCOC2)c1 [US20190276450, Example 2]"
12,> 25 µM,"CO[C@H](C)COc1cc(-c2cn(C)c3cnc(NC(C)=O)cc23)nc([C@]2(OC)CCOC2)c1 [US20190276450, Example 22.10]"
13,15 µM,"COc1cc(-c2cn(C)c3cnc(NC(N)=O)cc23)nc([C@@]2(OC)CCOC2)c1 [US20190276450, Example 12.7]"
14,20 µM,"CO[C@@]1(c2cc(C)cc(-c3cn([C@H]4C[C@H](C#N)C4)c4cnc(NC(C)=O)cc34)n2)CCOC1 [US20190276450, Example 17.4]"
15,42 µM,"CO[C@@]1(c2cc(OCC[C@H](C)O)cc(-c3cn(C)c4cnc(NC(C)=O)cc34)n2)CCOC1 [US20190276450, Example 9]"
16,5.45 µM,"CO[C@@]1(c2cccc(-c3cn(C)c4cnc(NC(N)=O)cc34)n2)CCOC1 [US20190276450, Example 1]"
17,5.2 µM,"CO[C@]1(c2cc(OCC3COC3)cc(-c3cn(C)c4cnc(NC(C)=O)cc34)n2)CCOC1 [US20190276450, Example 6.2]"
18,18.9 µM,"COCCOc1cc(-c2cn(C)c3cnc(NC(C)=O)cc23)nc([C@]2(CO)CCOC2)c1 [US20190276450, Example 22.8]"
19,> 100 µM,"CO[C@@]1(c2cc(C#N)cc(-c3cn([C@@H]4CC4(F)F)c4cnc(NC(N)=O)cc34)n2)CCOC1 [US20190276450, Example 12a.3]"
20,49 µM,"CO[C@@]1(c2cc(OC[C@@H](C)O)cc(-c3cn(C)c4cnc(NC(C)=O)cc34)n2)CCOC1 [US20190276450, Example 14.6]"
21,34 µM,"CO[C@@]1(c2cc(OCC[C@@H](C)O)cc(-c3cn(C)c4cnc(NC(C)=O)cc34)n2)CCOC1 [US20190276450, Example 7]"
22,35 µM,"CO[C@@]1(c2cc(OC(F)F)cc(-c3cn(C)c4cnc(NC(C)=O)cc34)n2)CCOC1 [US20190276450, Example 22.2]"
23,4.46 µM,"CO[C@]1(c2cc(C)cc(-c3cn(C)c4cnc(NC(N)=O)cc34)n2)CCOC1 [US20190276450, Example 1b.3]"
24,20 µM,"CO[C@@]1(c2cc(C(F)F)cc(-c3cn(C)c4cnc(NC(N)=O)cc34)n2)CCOC1 [US20190276450, Example 12.5]"

# Target: Non-receptor tyrosine-protein kinase TYK2 (Homo sapiens, UniProt P29597)
# Test: TYK2 (TYK2/JAK2 PSTAT4 T-BLAST) Alpha Screen Assay
# Description: IL-12 is known to transduce its signal through IL-12 receptor via Jak2 and/or Tyk2. For that reason, the activity against Tyk2/Jak2 was measured by determining the inhibition of IL-12 induced phosphorylation of STAT4 in T-blast cells. […] See, e.g., Sohn et al., J. Immunology (2013) 2205-2216.
# Chain of Non-receptor tyrosine-protein kinase TYK2 (P29597 whole entry): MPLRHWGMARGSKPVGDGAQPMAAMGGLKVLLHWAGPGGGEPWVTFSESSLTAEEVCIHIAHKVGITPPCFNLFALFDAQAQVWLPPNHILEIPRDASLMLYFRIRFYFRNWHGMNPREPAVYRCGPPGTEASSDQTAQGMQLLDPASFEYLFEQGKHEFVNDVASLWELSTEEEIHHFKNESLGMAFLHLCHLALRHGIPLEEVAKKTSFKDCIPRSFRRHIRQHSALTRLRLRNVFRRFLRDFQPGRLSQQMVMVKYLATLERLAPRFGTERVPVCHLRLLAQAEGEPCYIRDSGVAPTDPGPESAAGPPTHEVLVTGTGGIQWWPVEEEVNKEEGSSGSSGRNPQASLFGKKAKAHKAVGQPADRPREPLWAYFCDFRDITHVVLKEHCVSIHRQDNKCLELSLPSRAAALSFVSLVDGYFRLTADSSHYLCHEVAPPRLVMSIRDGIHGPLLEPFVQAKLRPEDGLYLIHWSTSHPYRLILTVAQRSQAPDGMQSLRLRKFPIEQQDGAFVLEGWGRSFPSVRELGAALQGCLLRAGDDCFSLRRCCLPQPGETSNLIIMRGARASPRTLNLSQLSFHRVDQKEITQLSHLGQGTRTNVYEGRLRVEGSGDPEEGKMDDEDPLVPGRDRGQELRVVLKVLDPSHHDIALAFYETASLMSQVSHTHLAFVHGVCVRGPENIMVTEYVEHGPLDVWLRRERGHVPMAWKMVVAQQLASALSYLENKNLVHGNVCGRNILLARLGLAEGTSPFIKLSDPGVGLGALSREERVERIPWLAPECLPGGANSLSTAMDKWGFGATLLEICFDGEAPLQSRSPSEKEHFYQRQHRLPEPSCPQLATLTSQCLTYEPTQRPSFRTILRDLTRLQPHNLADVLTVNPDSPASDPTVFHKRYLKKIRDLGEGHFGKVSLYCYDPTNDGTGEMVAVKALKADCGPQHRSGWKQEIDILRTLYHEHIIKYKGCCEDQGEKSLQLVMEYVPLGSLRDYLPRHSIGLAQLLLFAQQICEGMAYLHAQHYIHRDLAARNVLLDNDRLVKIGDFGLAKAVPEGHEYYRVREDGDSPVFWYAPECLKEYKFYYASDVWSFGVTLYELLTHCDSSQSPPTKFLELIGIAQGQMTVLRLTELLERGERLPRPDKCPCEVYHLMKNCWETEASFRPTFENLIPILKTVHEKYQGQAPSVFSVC
row,EC50,SMILES
1,0.015 µM,"CO[C@@]1(c2cc(C(F)F)cc(-c3cn([C@@H]4CCOC4)c4cnc(NC(N)=O)cc34)n2)CCOC1 [US20190276450, Example 12b.2]"
2,0.908 µM,"NC(=O)Nc1cc2c(-c3cccc(C4(O)COC4)n3)cn([C@@H]3CCOC3)c2cn1 [US20190276450, Example 15]"
3,0.045 µM,"CO[C@@]1(c2cc(C(F)F)cc(-c3cn(C4COC4)c4cnc(NC(N)=O)cc34)n2)CCOC1 [US20190276450, Example 12b.4]"
4,0.111 µM,"COc1cc(-c2cn(C3COC3)c3cnc(NC(C)=O)cc23)nc([C@]2(OC)CCOC2)c1 [US20190276450, Example 5]"
5,0.134 µM,"CO[C@@]1(c2cc(O[C@@H](C)CCO)cc(-c3cn(C)c4cnc(NC(C)=O)cc34)n2)CCOC1 [US20190276450, Example 14.4]"
6,0.09 µM,"CO[C@@]1(c2cc(OC3COC3)cc(-c3cn(C)c4cnc(NC(C)=O)cc34)n2)CCOC1 [US20190276450, Example 8]"
7,0.025 µM,"CO[C@@]1(c2cc(C)cc(-c3cn(C)c4cnc(NC(N)=O)cc34)n2)CCOC1 [US20190276450, Example 1b.2]"
8,0.142 µM,"COC1(c2cccc(-c3cn(C)c4cnc(NC(N)=O)cc34)n2)COC1 [US20190276450, Example 1b.4]"
9,0.144 µM,"CO[C@@]1(c2cc(C(F)F)cc(-c3cn([C@H]4C[C@H](C#N)C4)c4cnc(NC(C)=O)cc34)n2)CCOC1 [US20190276450, Example 17.2]"
10,0.156 µM,"COc1cc(-c2cn([C@@H]3CCOC3)c3cnc(NC(C)=O)cc23)nc([C@]2(OC)CCOC2)c1 [US20190276450, Example 5.2]"
11,0.126 µM,"COCc1cc(-c2cn(C)c3cnc(NC(C)=O)cc23)nc([C@]2(OC)CCOC2)c1 [US20190276450, Example 2]"
12,0.092 µM,"CO[C@H](C)COc1cc(-c2cn(C)c3cnc(NC(C)=O)cc23)nc([C@]2(OC)CCOC2)c1 [US20190276450, Example 22.10]"
13,0.185 µM,"COc1cc(-c2cn(C)c3cnc(NC(N)=O)cc23)nc([C@@]2(OC)CCOC2)c1 [US20190276450, Example 12.7]"
14,0.127 µM,"CO[C@@]1(c2cc(C)cc(-c3cn([C@H]4C[C@H](C#N)C4)c4cnc(NC(C)=O)cc34)n2)CCOC1 [US20190276450, Example 17.4]"
15,0.085 µM,"CO[C@@]1(c2cc(OCC[C@H](C)O)cc(-c3cn(C)c4cnc(NC(C)=O)cc34)n2)CCOC1 [US20190276450, Example 9]"
16,0.059 µM,"CO[C@@]1(c2cccc(-c3cn(C)c4cnc(NC(N)=O)cc34)n2)CCOC1 [US20190276450, Example 1]"
17,0.103 µM,"CO[C@]1(c2cc(OCC3COC3)cc(-c3cn(C)c4cnc(NC(C)=O)cc34)n2)CCOC1 [US20190276450, Example 6.2]"
18,0.184 µM,"COCCOc1cc(-c2cn(C)c3cnc(NC(C)=O)cc23)nc([C@]2(CO)CCOC2)c1 [US20190276450, Example 22.8]"
19,0.066 µM,"CO[C@@]1(c2cc(C#N)cc(-c3cn([C@@H]4CC4(F)F)c4cnc(NC(N)=O)cc34)n2)CCOC1 [US20190276450, Example 12a.3]"
20,0.087 µM,"CO[C@@]1(c2cc(OC[C@@H](C)O)cc(-c3cn(C)c4cnc(NC(C)=O)cc34)n2)CCOC1 [US20190276450, Example 14.6]"
21,0.878 µM,"CO[C@@]1(c2cc(OCC[C@@H](C)O)cc(-c3cn(C)c4cnc(NC(C)=O)cc34)n2)CCOC1 [US20190276450, Example 7]"
22,0.089 µM,"CO[C@@]1(c2cc(OC(F)F)cc(-c3cn(C)c4cnc(NC(C)=O)cc34)n2)CCOC1 [US20190276450, Example 22.2]"
23,0.445 µM,"CO[C@]1(c2cc(C)cc(-c3cn(C)c4cnc(NC(N)=O)cc34)n2)CCOC1 [US20190276450, Example 1b.3]"
24,0.022 µM,"CO[C@@]1(c2cc(C(F)F)cc(-c3cn(C)c4cnc(NC(N)=O)cc34)n2)CCOC1 [US20190276450, Example 12.5]"
